Reference: PubChem BioAssay (NCI)
Values joined by “and” are separate entries in the source; they are usually repeats but may differ in a detail not shown here. Equal entries are not always repeated.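 Briefly, cells in 96-well plates were exposed to five compound concentrations for 48 h, and endpoints were estimated by linear interpolation. Abbreviation: GI50, concentration required for 50% inhibition of growth. Definition used: TGI = concentration required for complete inhibition of growth.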

Columns and labels:
Test in all cases: inhibition of tumour cell growth, NCI panel, 48 h
SR leukemia = test system: SR leukemia
SK-OV-3 ovarian = test system: SK-OV-3 ovarian
SW-620 colon = test system: SW-620 colon
IGROV1 ovarian = test system: IGROV1 ovarian
MOLT-4 leukemia = test system: MOLT-4 leukemia
SF-268 CNS = test system: SF-268 CNS
786-0 renal = test system: 786-0 renal
A498 renal = test system: A498 renal
HL-60(TB) leukemia = test system: HL-60(TB) leukemia
K-562 leukemia = test system: K-562 leukemia

Row | SMILES | GI50 (SR leukemia) | TGI (SR leukemia) | GI50 (SK-OV-3 ovarian) | TGI (SK-OV-3 ovarian) | GI50 (SW-620 colon) | TGI (SW-620 colon) | GI50 (IGROV1 ovarian) | TGI (IGROV1 ovarian) | GI50 (MOLT-4 leukemia) | TGI (MOLT-4 leukemia) | GI50 (SF-268 CNS) | TGI (SF-268 CNS) | GI50 (786-0 renal) | TGI (786-0 renal) | GI50 (A498 renal) | TGI (A498 renal) | GI50 (HL-60(TB) leukemia) | TGI (HL-60(TB) leukemia) | GI50 (K-562 leukemia) | TGI (K-562 leukemia)
1 | COc1ccc2c(c1)C(=O)c1c-2n(CCCN=[N+]=[N-])c(=O)c2ccccc12 | 5.7 µM | > 100 µM | 20.3 µM | 69.5 µM | 25.5 µM | > 100 µM | 32.8 µM | > 100 µM | 4.38 µM | > 100 µM | 39.8 µM | > 100 µM | 27.9 µM | > 100 µM | 21.1 µM | 69.2 µM | 54.1 µM | > 100 µM | 26 µM | > 100 µM
2 | OC(c1ccccc1)(c1ccccc1)c1ccccn1 | – | > 100 µM | – | > 100 µM | – | > 100 µM | – | > 100 µM | – | > 100 µM | – | > 100 µM | – | > 100 µM | – | > 100 µM | – | > 100 µM | – | > 100 µM
3 | Oc1nc(NCCc2ccccc2)sc1/C=C1\C=Nc2ncccc21 | 0.397 µM and 0.554 µM | 17.7 µM and 7.79 µM | 2.08 µM and 2.77 µM | 15.2 µM and 9.07 µM | 1.92 µM and 2.37 µM | 8.09 µM and 11.9 µM | 2.51 µM and 3.03 µM | 18 µM and 50.4 µM | 3.17 µM and 2.77 µM | 11.6 µM and 11 µM | 2.72 µM and 2.63 µM | 9.07 µM and 8.87 µM | 3.03 µM and 3.02 µM | 11.2 µM and 9.85 µM | 1.95 µM and 1.84 µM | 4.19 µM and 4.45 µM | 2.34 µM and 2.14 µM | 6.48 µM and 6.88 µM | 4.12 µM and 4.7 µM | 20 µM and 79.6 µM
4 | CC(C)=CC/C=C(/C)[C@H]1CC[C@]2(C)[C@@H]1CC[C@@H]1[C@@]3(C)CCC(=O)NC(C)(C)[C@@H]3CC[C@]12C | 17.4 µM | 51.8 µM | 47.7 µM | > 100 µM | 20.2 µM | 43.9 µM | 10.6 µM | 26.5 µM | 15.4 µM | 49.6 µM | 17.2 µM | 34.6 µM | 19.8 µM | 37.5 µM | 23.6 µM | 67.5 µM | 18.2 µM | 49.3 µM | 17.3 µM | 88.2 µM
5 | CCOc1ccc(Cc2nccc3cc(OCC)c(OCC)cc23)cc1OCC | 12.6 µM | 56.2 µM | 16.3 µM | 58.2 µM | 3.68 µM | 24.1 µM | 2.39 µM | 12.7 µM | 5.83 µM | 34.2 µM | 11.3 µM | 36.7 µM | 9.57 µM | 40.4 µM | 0.763 µM | 19.9 µM | 3.17 µM | 18.2 µM | 3.54 µM | 49.9 µM
6 | CC1=C(N2CC2)C(=O)C(CO)=C(N2CC2)C1=O | – | > 49 µM | 0.186 µM | 1.81 µM | 0.00368 µM | – | 0.0168 µM | 0.0703 µM and 0.0518 µM | – | 5.88 µM | 0.00666 µM | – | 0.00201 µM | 0.0199 µM and 0.133 µM | 0.0158 µM | 0.041 µM and 0.22 µM | 0.000498 µM | 0.0104 µM | – | 1.07 µM
7 | CCC(=O)C1=C(OC(C)=O)C2Cc3c(n(C)c4ccccc34)C(C1)N2C (stereo not given) | – | > 100 µM | – | > 100 µM | – | 90.1 µM | – | > 100 µM | – | > 100 µM | – | 47.9 µM | – | 66.4 µM | – | > 100 µM | – | 53 µM | – | > 100 µM
8 | Nc1nc(-c2ccccc2)c(-c2ccccc2)c(-c2nc(N)nc(-c3ccccc3)c2-c2ccccc2)n1 | – | > 100 µM | – | > 100 µM | – | > 100 µM | – | > 100 µM | – | > 100 µM | – | > 100 µM | – | > 100 µM | – | > 100 µM | – | > 100 µM | – | > 100 µM
9 | COC1=C(OC)C(=O)C(/C=C(\C)C(=O)O)=C(C)C1=O | > 100 µM | > 100 µM | > 100 µM | > 100 µM | > 100 µM | > 100 µM | > 100 µM | > 100 µM | > 100 µM | > 100 µM | > 100 µM | > 100 µM | > 100 µM | > 100 µM | > 100 µM | > 100 µM | > 100 µM | > 100 µM | > 100 µM | > 100 µM
10 | CC(=O)NNc1nc(C)c(C(=O)NNC(=O)C(=O)Nc2ccc(C)c(C)c2)s1 | – | > 100 µM | – | > 100 µM | – | > 100 µM | – | > 100 µM | – | > 100 µM | – | > 100 µM | – | > 100 µM | – | > 100 µM | – | > 100 µM | – | > 100 µM
11 | c1cncc(CNc2ccccc2-c2nnc(Nc3ccc4c(c3)OCO4)o2)c1 | 0.0361 µM | > 100 µM | 0.0914 µM | 7.81 µM | 0.0413 µM | > 100 µM | 0.171 µM | > 100 µM | 0.194 µM | > 100 µM | 0.407 µM | > 100 µM | 0.14 µM | > 90.4 µM | 0.0199 µM | > 100 µM | 0.0259 µM | 0.147 µM | 0.0474 µM | > 100 µM
12 | N#Cc1ccc(Oc2nccc(-c3c(-c4ccc(F)cc4)ncn3C3CCNCC3)n2)cc1 | 4.54 µM | 11.3 µM | > 25 µM | > 25 µM | > 15.4 µM | > 25 µM | > 25 µM | > 25 µM | 8.01 µM | 20.8 µM | 24.6 µM | > 25 µM | > 25 µM | > 25 µM | > 25 µM | > 25 µM | > 25 µM | > 25 µM | 5.01 µM | 12.4 µM
13 | CCN1CCN(CCOc2ccc(CNc3ccc4nc(CCC5CCCCC5)[nH]c4c3)cc2)CC1 | 0.303 µM | 0.941 µM | 2.28 µM | 5.16 µM | 1.91 µM | 4.14 µM | 2.83 µM | 11 µM | 1.87 µM | 6.09 µM | 2 µM | 5.16 µM | 1.57 µM | 3.39 µM | 1.44 µM | 3.35 µM | 1.87 µM | 3.92 µM | 0.42 µM | 2.69 µM
14 | COc1cccc(Nc2nc(NNC(=O)Cc3ccccc3)nc(NNC(=O)c3ccncc3)n2)c1 | – | > 100 µM | > 100 µM | > 100 µM | – | > 100 µM | > 100 µM | > 100 µM | – | > 100 µM | > 100 µM | > 100 µM | > 100 µM | > 100 µM | – | > 100 µM | – | > 100 µM | > 100 µM | > 100 µM
15 | C=CCN1C(=O)/C(=c2\sc3n(c2=O)C2C(NN=3)N(CC)C(=O)N2CC)c2ccccc21 (stereo not given) | 0.38 µM | > 100 µM | 1.45 µM | > 23.9 µM | 0.423 µM | > 100 µM | 0.978 µM | > 100 µM | 1.71 µM | > 100 µM | 1.26 µM | > 100 µM | 0.708 µM | 14.9 µM | 0.246 µM | 1.17 µM | 0.315 µM | 2.05 µM | 0.414 µM | > 100 µM
16 | COC(=O)[C@]12CC[C@@H](C)[C@H](C)[C@@H]1C1=CC[C@@H]3[C@@]4(C)C[C@@H](OC(=O)c5ccco5)[C@H](O)[C@@](C)(CO)[C@@H]4[C@H](O)C[C@@]3(C)[C@]1(C)CC2 | 1.99 µM | 4.68 µM | 3.95 µM | 11.9 µM | 1.79 µM | 3.54 µM | 2.42 µM | 6.33 µM | 2.04 µM | 4.44 µM | 3.26 µM | 14.2 µM | 2.1 µM | 4.46 µM | 2.5 µM | 7.75 µM | 2.08 µM | 5.46 µM | 2.35 µM | 5.42 µM
17 | Nc1nc(N)c2cc(CNc3ccc(Cl)c(Cl)c3)ccc2n1 | 0.445 µM | 1.93 µM | 1.28 µM | 2.53 µM | 0.133 µM | 1.5 µM | 0.579 µM | 1.92 µM | 0.485 µM | 2.02 µM | 0.544 µM | 1.85 µM | 0.391 µM | 1.73 µM | 1.76 µM | 8.54 µM | 0.357 µM | 2 µM | 0.0588 µM | 1.45 µM
18 | N/C(=N\O)c1ncc(-c2ccc(C(F)(F)F)cc2)c(NC2CCCCCC2)n1 | 4.49 µM and 1.52 µM | 6.68 µM | 7.05 µM | 20.8 µM | 4.92 µM and 3.88 µM | 15.4 µM | 6.72 µM and 2.26 µM | 10.7 µM | 5.44 µM and 1.9 µM | 5.78 µM | 3.64 µM | 15.7 µM | 3.54 µM | 13.1 µM | 1.96 µM | 15.8 µM | 2.06 µM | 5.52 µM | 4.36 µM and 1.71 µM | 11.8 µM
19 | CCSC1(SCC)CCN(C=NC(C)(C)C)C1 | – | > 100 µM | – | > 100 µM | – | 53.2 µM | – | > 100 µM | – | > 100 µM | – | > 100 µM | – | > 100 µM | – | > 100 µM | – | > 100 µM | – | > 100 µM
20 | COc1c(OC(C)=O)cc2c(OC(C)=O)c1CC(C)CC(OC)C(O)C(C)/C=C(\C)C(OC(N)=O)C(OC)/C=C\C=C(/C)C(=O)N2 (stereo not given) | – | > 72.6 µM | – | > 100 µM | – | > 100 µM | – | > 100 µM | – | > 87.4 µM | – | > 100 µM | – | > 100 µM | – | > 100 µM | – | > 67.5 µM | – | > 62.6 µM
